Where two headings read alike, the source gives them in different places.
How the values were obtained:
rats suffering from TBI = conditions: moderate to severe TBI, 16 mg/kg, 72 hours post-injury, p<0.05 (FIG. 1); cited from earlier work
[1] = system: moderate to severe TBI patients; conditions: cited from earlier work
[2] = system: rats that have suffered a concussion (mTBI); assay: Morris Water Maze latency to platform in mTBI (concussion) model; assay type: in vivo, rat; conditions: versus vehicle-injured rats (FIG. 8)
severe TBI patients = conditions: six months; cited from earlier work
glutathione reductase = conditions: 72 hours post-injury, p<0.01 (FIG. 2); cited from earlier work
[3] = molecular target: T1, classical progesterone receptor (PR) (Homo sapiens, UniProt P06401); conditions: cited from earlier work
T1 sequence (P06401 1-933): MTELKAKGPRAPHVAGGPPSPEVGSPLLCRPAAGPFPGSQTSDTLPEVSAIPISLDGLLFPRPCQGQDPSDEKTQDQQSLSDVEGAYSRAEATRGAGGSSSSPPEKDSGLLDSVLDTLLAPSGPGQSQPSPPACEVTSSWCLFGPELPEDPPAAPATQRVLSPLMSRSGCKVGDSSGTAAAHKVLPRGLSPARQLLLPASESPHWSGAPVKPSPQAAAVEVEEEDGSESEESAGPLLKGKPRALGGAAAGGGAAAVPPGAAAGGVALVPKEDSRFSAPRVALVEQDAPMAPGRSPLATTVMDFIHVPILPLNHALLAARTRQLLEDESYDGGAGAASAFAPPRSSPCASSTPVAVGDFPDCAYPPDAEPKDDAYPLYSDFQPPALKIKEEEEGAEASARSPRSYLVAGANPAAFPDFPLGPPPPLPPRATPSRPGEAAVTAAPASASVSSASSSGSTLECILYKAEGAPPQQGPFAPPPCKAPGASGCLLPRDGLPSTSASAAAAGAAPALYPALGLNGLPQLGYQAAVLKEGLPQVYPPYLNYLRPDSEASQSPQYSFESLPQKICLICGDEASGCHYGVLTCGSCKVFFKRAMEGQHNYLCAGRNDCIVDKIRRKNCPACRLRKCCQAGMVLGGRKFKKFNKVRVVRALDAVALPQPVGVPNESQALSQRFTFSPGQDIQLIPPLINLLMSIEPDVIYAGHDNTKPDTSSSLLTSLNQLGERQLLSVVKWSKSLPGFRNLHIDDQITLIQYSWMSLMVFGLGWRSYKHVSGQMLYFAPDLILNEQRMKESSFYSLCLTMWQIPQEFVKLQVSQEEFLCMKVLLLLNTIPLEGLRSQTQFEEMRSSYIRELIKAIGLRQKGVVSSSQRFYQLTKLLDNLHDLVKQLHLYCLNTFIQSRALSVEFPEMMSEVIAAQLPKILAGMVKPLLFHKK

Row | SMILES | brain water content (measure of edema) (rats suffering from TBI) | 30 days post-injury outcomes (Glasgow Outcome Scale-Extended, Disability Rating Scale) ([1]; moderate TBI patients) | 30 days post-injury outcomes (Glasgow Outcome Scale-Extended, Disability Rating Scale) ([1]; patients with severe brain injuries) | latency to platform, Morris Water Maze ([2]; Prog administered post-acutely (15 minutes post)) | latency to platform, Morris Water Maze ([2]; Prog administered prophylactically (15 minutes prior)) | neurological outcomes long-term (severe TBI patients) | anti-oxidant activity of glutathione reductase (glutathione reductase) | activation of the classical progesterone receptor (PR) [3]
1 | CC(=O)[C@H]1CC[C@H]2[C@@H]3CC[C@H]4C[C@H](O)CC[C@]4(C)[C@H]3CC[C@]12C [ALLO, allopregnanolone] | normalizes brain water content | – | – | – | – | – | – | –
2 | CC(=O)[C@H]1CC[C@H]2[C@@H]3CCC4=CC(=O)CC[C@]4(C)[C@H]3CC[C@]12C [Prog, progesterone] | normalizes brain water content | better outcomes | little measurable difference | decreases latency to platform | decreases latency to platform | better neurological outcomes long-term | – | –
3 | CC(=O)[C@@H]1CC[C@@H]2[C@H]3CCC4=CC(=O)CC[C@@]4(C)[C@@H]3CC[C@]21C [ent-Prog, ent-progesterone] | normalizes brain water content | – | – | – | – | – | significantly increases the anti-oxidant activity of glutathione reductase compared to all other groups | does not activate the classical progesterone receptor (PR)
